From PubChem BioAssay AID367 (MTDP, 2006)
Values joined by “and” are separate entries in the source; they are usually repeats but may differ in a detail not shown here. Equal values may be shown once. Active and inactive are the calls of the source. The rule behind the calls is not given here.

Target: Gag-Pol polyprotein (Human immunodeficiency virus type 2 subtype A (isolate ROD)) (UniProt P04584)
Assay: Reverse transcriptase ribonuclease H inhibitors, biochemical concentration-response (AID 367)
Conditions: HIV-2 RNase H, FRET RNA/DNA substrate cleavage

Gag-Pol polyprotein (Human immunodeficiency virus type 2 subtype A (isolate ROD)), sequence (P04584 whole entry, looked up): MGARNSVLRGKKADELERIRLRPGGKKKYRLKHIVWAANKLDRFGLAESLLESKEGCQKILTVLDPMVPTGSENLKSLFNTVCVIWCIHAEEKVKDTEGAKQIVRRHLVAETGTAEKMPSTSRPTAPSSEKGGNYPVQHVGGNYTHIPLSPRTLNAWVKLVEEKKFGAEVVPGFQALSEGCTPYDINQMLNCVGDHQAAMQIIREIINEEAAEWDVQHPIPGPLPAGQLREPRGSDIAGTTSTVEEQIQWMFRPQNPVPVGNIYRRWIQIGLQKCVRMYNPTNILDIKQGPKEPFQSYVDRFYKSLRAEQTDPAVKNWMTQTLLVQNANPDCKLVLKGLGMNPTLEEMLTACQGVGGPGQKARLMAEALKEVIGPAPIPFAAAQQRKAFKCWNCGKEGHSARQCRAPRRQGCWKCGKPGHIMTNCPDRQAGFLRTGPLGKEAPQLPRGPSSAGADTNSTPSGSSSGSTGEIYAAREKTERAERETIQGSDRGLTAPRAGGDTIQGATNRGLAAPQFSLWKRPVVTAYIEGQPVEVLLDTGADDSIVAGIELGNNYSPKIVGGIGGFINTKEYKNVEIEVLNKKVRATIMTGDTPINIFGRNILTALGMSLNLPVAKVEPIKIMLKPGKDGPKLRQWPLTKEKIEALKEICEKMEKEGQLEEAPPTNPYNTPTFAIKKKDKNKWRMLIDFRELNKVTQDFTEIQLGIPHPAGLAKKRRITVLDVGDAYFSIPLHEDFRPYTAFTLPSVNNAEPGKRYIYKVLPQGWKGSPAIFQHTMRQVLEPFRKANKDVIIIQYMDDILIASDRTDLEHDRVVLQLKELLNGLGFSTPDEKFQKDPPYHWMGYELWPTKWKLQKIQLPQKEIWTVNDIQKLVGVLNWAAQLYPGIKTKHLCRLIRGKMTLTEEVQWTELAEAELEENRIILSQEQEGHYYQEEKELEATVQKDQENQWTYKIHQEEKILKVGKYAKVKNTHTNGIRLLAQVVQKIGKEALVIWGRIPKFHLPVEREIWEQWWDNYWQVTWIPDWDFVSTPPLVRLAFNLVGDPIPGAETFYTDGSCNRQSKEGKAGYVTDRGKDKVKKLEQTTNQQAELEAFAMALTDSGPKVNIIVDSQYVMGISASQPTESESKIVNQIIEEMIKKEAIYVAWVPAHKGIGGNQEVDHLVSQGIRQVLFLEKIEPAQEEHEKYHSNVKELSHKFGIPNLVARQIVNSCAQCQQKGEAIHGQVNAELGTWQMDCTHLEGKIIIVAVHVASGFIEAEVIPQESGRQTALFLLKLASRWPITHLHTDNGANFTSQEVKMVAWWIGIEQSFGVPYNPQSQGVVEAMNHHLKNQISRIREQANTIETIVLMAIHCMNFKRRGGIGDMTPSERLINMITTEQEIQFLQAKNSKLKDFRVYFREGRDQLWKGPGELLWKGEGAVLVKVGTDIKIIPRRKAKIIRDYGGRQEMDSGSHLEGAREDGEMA

Cc1cc(-c2ccc(C=C3C(=O)NC(=S)NC3=O)o2)c([N+](=O)[O-])cc1C
IC50: 7 µM

Cc1ccc(S(=O)(=O)/N=C2\C=CC(=O)C=C2Cl)cc1
IC50: 2.1 µM

COc1cc(C=O)ccc1OCCCOc1cccc(Oc2ccccc2)c1
IC50: > 100 µM (inactive)

O=C1Nc2ccc(I)cc2C1(O)N1CCOCC1 (stereo not drawn)
IC50: 6.3 µM

COC(=O)c1c(N)sc(C(=O)Nc2ccc(OC)cc2)c1C
IC50: 4.3 µM

CC(=O)O[C@H](C)[C@@H]1C2=C(C(=O)C[C@]1(C)O)C(=O)c1c(ccc(-c3ccc4c(c3O)C(=O)C3=C(C4=O)[C@@H]([C@@H](C)OC(C)=O)[C@@](C)(O)CC3=O)c1O)C2=O
IC50: inactive

O=C1C=CC(=NS(=O)(=O)c2ccc(Cl)c([N+](=O)[O-])c2)C=C1
IC50: 4.1 µM

O=C1NC(=S)N(c2ccccc2F)C(=O)/C1=C/c1ccc(I)o1
IC50: 4.9 µM

COC(=O)c1cc2cc3cc4cc(CC(=O)O)c(C(=O)/C=C(\O)c5ccccc5O)c(OC)c4c(OC)c3c(O)c2c(=O)o1
IC50: 8.6 µM

O=C1c2ccccc2C(=O)c2c1cc(O)c(O)c2O
IC50: 0.4 µM

C[N+](C)=c1ccc2nc3c(cc(Nc4ccccc4)c4ccccc43)oc-2c1
IC50: inactive

Cc1sc(NC(=O)C2CC3CCC2C3)c(C(N)=O)c1C (stereo not drawn)
IC50: inactive

O=C1C=CC(=O)C(c2cc(Cl)ccc2Cl)=C1
IC50: 0.1 µM

Cc1c(Cl)ccc2c1NC(C(=O)O)C1CC=CC21 (stereo not drawn)
IC50: inactive

O=C(N/N=C/c1ccc(/C=N/NC(=O)c2ccc(O)c(O)c2)cc1)c1ccc(O)c(O)c1
IC50: 3.8 µM

Cc1cc(Cl)ccc1OCC(=O)Nc1sc(C)c(C)c1C(N)=O
IC50: inactive

C=C1C(=O)O[C@@H]2/C=C(\C)CC/C=C(\C(=O)O)CC/C=C(\C)CC[C@H]12
IC50: 5.5 µM

CCOc1ccc(C2=CC(=O)C=CC2=O)cc1
IC50: 0.7 µM

C=CCN1C(=O)/C(=C\c2ccc([N+](=O)[O-])o2)C(=O)NC1=S
IC50: inactive

Cc1sc(NC(=O)c2ccc(Br)o2)c(C(N)=O)c1C
IC50: 7 µM

CCN1C(=O)/C(=C/c2ccoc2)C(=O)NC1=S
IC50: inactive

CCOc1cccc(N2C(=O)/C(=C/c3cn(CC(=O)OC)c4ccccc34)C(=O)NC2=S)c1
IC50: 2.8 µM

O=C1C(Cl)=C(NC(=O)c2ccccc2)C(=O)C(Cl)=C1NC(=O)c1ccccc1
IC50: 1.1 µM

CN(C)CN1CSC(=S)N(CN(C)C)C1
IC50: 2.8 µM

O=C1/C(=C/c2ccc(O)c(O)c2)SC(=S)N1C1CCCCC1
IC50: 9.1 µM

O=C1NC(=S)N(c2ccccc2F)C(=O)/C1=C/c1ccc(OCc2cccc(C(=O)O)c2)cc1
IC50: 9 µM

CN(C)S(=O)(=O)c1ccc(Nc2ccc(O)c3c2C(=O)c2c([N+](=O)[O-])ccc(O)c2C3=O)cc1
IC50: 8 µM

O=C(Oc1ccccc1)Oc1c(Cl)cc2oc(=O)sc2c1Cl
IC50: 6.3 µM

Oc1cc(CN2COc3ccccc32)c(O)cc1CNC1CCCCC1
IC50: 2.9 µM

O=C1NC(=S)N(c2ccc(Cl)cc2)C(=O)/C1=C/c1ccco1
IC50: inactive

O=C(Cc1ccccc1Cl)c1ccc(O)c(O)c1O
IC50: 2 µM

Nc1nc(Sc2ccc([N+](=O)[O-])c3nonc23)c2[nH]cnc2n1
IC50: inactive

Cc1ccc(-c2cc(C(=O)Nc3sc(C(=O)OC(C)C)c(C)c3C(N)=O)c3ccccc3n2)s1
IC50: 1.1 µM

Oc1cc(O)c2cc(O)c(-c3ccc(O)c(O)c3)[o+]c2c1
IC50: 0.8 µM

O=C1NC(=O)/C(=C/c2ccc(-c3ccc(O)c(C(=O)O)c3)o2)S1
IC50: 1 µM

CC(C)c1ccc(O)c(O)c(=O)c1 (tested in a mixture with another compound)
IC50: 0.8 µM

CC(C)c1ccc(O)c(=O)cc1
IC50: inactive

Cc1cc(O)c2c(c1O)C(=O)c1cccc(O)c1C2=O
IC50: > 100 µM (inactive)

Cc1ccc(NC(=O)c2c(NC(=O)C(F)(F)F)sc(-c3ccccc3)c2C)c(C)c1
IC50: 2 µM

CCOc1ccc(NC(=O)c2c(NC(=O)c3ccccc3)sc3c2CCCCC3)cc1
IC50: inactive

O=C1NC(=S)N(c2ccc(Cl)cc2)C(=O)/C1=C\C=C\c1ccccc1[N+](=O)[O-]
IC50: 8 µM

CC1Oc2cc3c(-c4c(O)cc(O)c5c(O)c6c(cc45)OC(C)C(C)C6=O)c(O)cc(O)c3c(O)c2C(=O)C1C (stereo not drawn)
IC50: 8.2 µM

C[C@@H]1[C@H](O)c2c(c3c(c4c(-c5ccccc5)cc(=O)oc24)OC(C)(C)C=C3)O[C@@H]1C
IC50: inactive

Cc1cccc(NCC(=O)N/N=C\c2c(Br)cc(Br)c(O)c2Br)c1
IC50: inactive

COc1ccc(N2C(=O)/C(=C\c3cn(CC(=O)Nc4ccccc4)c4ccccc34)C(=O)NC2=S)cc1
IC50: 2.8 µM

COc1c(OC)c(O)c2c(=O)cc(-c3ccc(O)c(O)c3)oc2c1OC
IC50: 3 µM

COc1ccc(N2C(=O)/C(=C/c3ccc(I)o3)C(=O)NC2=S)cc1
IC50: 1.3 µM

CC(C)=CCC1=C(O)[C@@](O)(CC=C(C)C)C(=O)C(C(=O)CC(C)C)=C1O
IC50: 2.8 µM

COc1ccccc1NC(=O)c1c(NC(=O)Cc2ccccc2)sc2c1CCCCC2
IC50: 8.5 µM

O=C1C(Cl)=CC(=NS(=O)(=O)c2ccccc2)C=C1Cl
IC50: 1 µM

Cc1ccc(S(=O)(=O)N=C2C=C(Cl)C(=O)C(Br)=C2)cc1
IC50: 1.8 µM

CCOc1ccc(NC(=O)c2c(NC(=O)c3ccco3)sc3c2CCCCC3)cc1
IC50: 6 µM

Cc1ccc(NC(=O)c2c(NC(=O)c3ccccc3F)sc3c2CCCCC3)cc1
IC50: 5 µM

O=C1NN(c2ccc(I)cc2)C(=O)/C1=C\c1ccc(O)c(O)c1
IC50: 4.1 µM

COC([CH2][Hg][n]1cnc2c1c(=O)n(C)c(=O)n2C)CN1C(=O)c2ccccc2S1(=O)=O (stereo not drawn)
IC50: 0.9 µM

COc1cc(-c2[o+]c3cc(O)cc(O)c3cc2O)cc(O)c1O
IC50: 4.1 µM and 3.1 µM

Nc1cc(S(N)(=O)=O)ccc1SSc1ccc(S(N)(=O)=O)cc1N
IC50: 2.5 µM

Cc1ccc(S(=O)(=O)/N=C2\C=C(Sc3ncn[nH]3)C(=O)c3ccccc32)cc1
IC50: 2 µM

CCCCCCCCCCCCCCCC(=O)OCC1OC(n2ccc(N)nc2=O)C(O)C1O (stereo not drawn)
IC50: inactive

O=C1C(Cl)=C/C(=N\S(=O)(=O)c2ccccc2)C(Cl)=C1Cl
IC50: 0.9 µM

O=C1CC(=O)c2ccc3c4c(ccc1c24)C(=O)CC3=O
IC50: 3.8 µM

O=C(Nc1sc2c(c1C(=O)Nc1cccc3ccccc13)CCCCC2)c1ccccc1F
IC50: inactive

COc1cccc2cc(C(N)=O)c(=O)oc12
IC50: 4.6 µM

C=CC(C)(C)C12CC3C(=O)N/C(=C\c4cnc[nH]4)C(=O)N3C1Nc1ccccc12 (stereo not drawn)
IC50: > 100 µM (inactive)

Cc1sc(NC(=O)c2cccc([N+](=O)[O-])c2)c(C(N)=O)c1C
IC50: 1.8 µM

O=C(NC(=S)Nc1cc(-c2nc3ccccc3s2)ccc1Cl)c1ccc(F)cc1
IC50: 9.1 µM

CCCc1cc(=O)oc2c3c(c4c(c12)OC(C)(C)C=C4)O[C@H](C)[C@@H](C)[C@H]3OC
IC50: inactive

Cc1sc2nc(-c3ccc([N+](=O)[O-])cc3)[nH]c(=O)c2c1C
IC50: 0.64 µM

C=C(C)[C@@H]1CCc2c(O)c(O)c(=O)cc(C)c2C1
IC50: 1.7 µM

COc1ccc2c(c1)N(C(=O)CN1C(=O)c3ccccc3C1=O)C(C)(C)c1ssc(=S)c1-2
IC50: 3.7 µM

COc1ccc(C(=O)NC(=S)Nc2ccc3nn(-c4ccc(C)c(Cl)c4)nc3c2)cc1[N+](=O)[O-]
IC50: 4.3 µM

O=[N+]([O-])c1c(Cl)cccc1-c1c[nH]cc1Cl
IC50: > 100 µM (inactive)

CC(C)c1ccc(O)c(O)c(=O)c1
IC50: 1 µM

S=C(Nc1ccc2c(c1)Cc1ccccc1-2)Nc1ccc2c(c1)Cc1ccccc1-2
IC50: inactive

O=C(O)/C=C/c1c2ccc(=O)c(O)c-2oc2c(O)c(O)ccc12
IC50: 0.5 µM

COc1ccc2oc(=O)c(-c3csc(Nc4ccc(Br)cc4)n3)cc2c1
IC50: 9.8 µM

Oc1ccc2ccccc2c1C=NCc1c(O)ccc2ccccc12
IC50: inactive

COc1ccccc1N=C(NOCc1ccc(Cl)cc1Cl)c1nonc1N
IC50: inactive

O=C(O)c1c(Br)c(Br)c(Br)c(Br)c1C1c2ccc(O)cc2Oc2cc(O)ccc21
IC50: 8 µM

O=c1[nH]c(=S)n(-c2ccccc2F)c(O)c1C=C1C=CC=N1
IC50: 2.3 µM

Cc1sc(NC(=O)c2ccc3c(c2)OCO3)c(C(N)=O)c1C
IC50: 10 µM

CC(=O)/C=C/C=C/c1ccc2c(c1)OC(CO)C(c1ccc(O)c(O)c1)O2 (stereo not drawn)
IC50: inactive

O=C(Nc1ccc(N2CCN(C(=O)c3ccccc3)CC2)cc1)c1ccc(-c2ccccc2)cc1
IC50: 2.6 µM

Cc1ccc(S(=O)(=O)N=C2C=CC(=O)C=C2)c(C)c1
IC50: 4.3 µM

Cc1ccc(-n2c(/C=C/c3ccc(O)c(O)c3)nc3ccccc3c2=O)cc1
IC50: 3.8 µM

COc1ccc(/C=C\C(=O)c2c(-c3ccccc3)c3cc(C)ccc3[nH]c2=O)c(OC)c1
IC50: inactive

Cc1cc(C(=O)O)ccc1-n1c(C)ccc1C
IC50: inactive

N#Cc1c(NC(=O)C(F)(F)F)sc2c3c(=O)c4ccccc4c(=O)c=3oc3ccccc3c12
IC50: inactive

NC(=O)c1c(NC(=O)COc2ccccc2)sc2c1CCCCC2
IC50: 8 µM

NC(=O)c1c(N)sc2c1CCCCC2
IC50: 2.5 µM

Nc1ccc(N=Nc2ccc(-c3ccc(O)cc3)cc2)c2ccc(S(=O)(=O)O)cc12
IC50: 6.3 µM

O=C1C(Cl)=C/C(=N\S(=O)(=O)c2ccc(Cl)cc2)C(Cl)=C1Cl
IC50: 1 µM

Oc1cc(O)c2c(c1)OC(c1ccc(O)c(O)c1)C(OC1(c3cc(O)c(O)c(O)c3)Oc3cc(O)cc(O)c3C(O)C1O)C2 (stereo not drawn)
IC50: 1.6 µM

CC(C)=CCc1ccc(O)c(=O)cc1C(C)C
IC50: > 100 µM (inactive)

O=C1C(Cl)=C(Nc2ccc(S(=O)(=O)Nc3ccccn3)cc2)C(=O)c2ccccc21
IC50: 3.4 µM

CC(C)=CCC/C(C)=C/Cc1cc(/C=C/c2cc(O)c(C/C=C(\C)CCC=C(C)C)c(O)c2)cc(O)c1O
IC50: 8.2 µM

C[C@@H]1Oc2c3c(c4c(-c5ccccc5)cc(=O)oc4c2C(=O)[C@H]1C)OC(C)(C)C=C3
IC50: 9.8 µM

Cc1ccc(-c2n[nH]c(=S)n2/N=C/c2ccc(O)c(O)c2O)cc1
IC50: 3.8 µM

O=C1NC(=S)N(c2cccc(Cl)c2)C(=O)/C1=C\C=C\c1ccco1
IC50: 7 µM

CC(C)=CCC(O)C1=CC(=O)c2c(O)ccc(O)c2C1=O (stereo not drawn)
IC50: inactive

COc1ccc(C2COc3cc(O)c(O)cc3C2)cc1 (stereo not drawn)
IC50: 0.5 µM

COc1ccc(NC(=O)c2c(N)sc(-c3ccccc3)c2C)cc1
IC50: 9 µM

CC1C2C=CC1C(c1c3ccc(=O)c(O)c-3oc3c(O)c(O)ccc13)C2C(=O)O (stereo not drawn)
IC50: 0.5 µM
